Experimental data reported in US9801961B2, “2-phenylimidazo[1,2-a]pyrimidines as imaging agents” (Hoffmann-La Roche Inc., priority 2013, dated 2017).

Tested on: native tau aggregates
Assay: TAU radioligand in vitro displacement assay ([3H]T808 autoradiography on human AD brain sections)
Type: binding
Settings: radioligand [3H]T808 10 nM, 50 mM Tris pH 7.4, room temperature, 30 min; for % displacement of [3H]T808 (10 nM) at 10 nM: compound 10 nM; for % displacement of [3H]T808 (10 nM) at 1 uM: compound 1 uM
Procedure: TAU Radioligand-In-Vitro Displacement Assay
This in vitro binding assay assesses the affinity of compounds for native tau aggregates. The compounds are co-incubated with the well-established tau specific radioligand [^3H]T808 and the compound's displacement potency of [^3H]T808 binding is determined by in vitro autoradiography using human Alzheimer's disease (AD) brain sections (FIG. 1).
AD human brains are purchased from Banner Sun Health Research Institute (Sun City, Ariz., USA). Pathological diagnosis of AD is made according to standard NIA-Reagan Institute criteria based on neuropathological data. The radioligand [^3H]T808 was synthesized in-house ([^3H]-2-[4-(2-Fluoro-ethyl)-piperidin-1-yl]-benzo[4,5]imidazo[1,2-a]pyrimidine, radiochemical purity 99.0%). As a reference cold T808 is used (2-[4-(2-Fluoro-ethyl)-piperidin-1-yl]-benzo[4,5]imidazo[1,2-a]pyrimidine). For the autoradiography FujiFilm Imaging Plates (BAS-IP TR 2025) are exposed to the sections and read with a FujiFilm IP reader (BAS-5000).
Ten μm thick human AD brain sections are generated with a cryostat (Leica CM3050) at −17° C. chamber temperature and −15° C. object temperature. Sections are transferred to Histobond+microscope slides (Marienfeld Laboratory Glasware). After drying for 3 hours at room temperature the sections are stored at −20° C. The sections are incubated with the radioligand (10 nM) and the respective cold compound (at various concentrations) in 50 mM Tris buffer, pH 7.4 at room temperature for 30 min. After washing 3×10 min at 4° C. in 50 mM Tris buffer, pH 7.4 and 3 quick dips in H2O dist. at 4° C. the sections are dried at 4° C. for 3 h. The sections are placed in a FujiFilm Cassette (BAS 2025), exposed with an Imaging Plate for five days and afterwards scanned with a resolution of […].
The signal intensity (Dens—PSL/mm2) in the region of interest (ROI) of the autoradiogram is quantified with the software MCID analysis (version 7.0, Imaging Research Inc.). The specific binding (SB) of [^3H]T808 binding in absence or in presence of a compound is calculated by subtracting the non-specific binding signal in the white matter, thus yielding SB[3H]T808 only and SBcompund. The % displacement by the various compounds is calculated as following: % displacement=100−(SBcompund/SB[3H]T808 only)*100.
In each experiment cold T808 is used as a positive internal control. Co-incubation of equimolar amounts of hot and cold T808 is expected to reduce specific binding by approximately 50%.

Compound: CNc1ccn2cc(-c3ccccc3)nc2n1 [Example 1, N-Methyl-2-phenylimidazo[1,2-a]pyrimidin-7-amine]
- % displacement of [3H]T808 (10 nM) at 10 nM: 37%

Compound: FC1CCN(c2ccn3cc(-c4ccccc4)nc3n2)CC1 [Example 2, 7-(4-Fluoropiperidin-1-yl)-2-phenylimidazo[1,2-a]pyrimidine]
- % displacement of [3H]T808 (10 nM) at 10 nM: 19%
- % displacement of [3H]T808 (10 nM) at 1 uM: 72%

Compound: COc1ccc(-c2cn3ccc(N4CCC(F)CC4)nc3n2)cc1 [Example 3, 7-(4-Fluoropiperidin-1-yl)-2-(4-methoxyphenyl)imidazo[1,2-a]pyrimidine]
- % displacement of [3H]T808 (10 nM) at 10 nM: 31%
- % displacement of [3H]T808 (10 nM) at 1 uM: 87%

Compound: FC1CCN(c2ccn3cc(-c4ccc(Cl)cc4)nc3n2)CC1 [Example 4, 2-(4-Chlorophenyl)-7-(4-fluoropiperidin-1-yl)imidazo[1,2-a]pyrimidine]
- % displacement of [3H]T808 (10 nM) at 1 uM: 58%

Compound: COc1cccc(-c2cn3ccc(N4CCC(F)CC4)nc3n2)c1 [Example 5, 7-(4-Fluoropiperidin-1-yl)-2-(3-methoxyphenyl)imidazo[1,2-a]pyrimidine]
- % displacement of [3H]T808 (10 nM) at 10 nM: 33%
- % displacement of [3H]T808 (10 nM) at 1 uM: 74%

Compound: Fc1ccc(-c2cn3ccc(N4CCC(F)CC4)nc3n2)cc1 [Example 6, 2-(4-Fluorophenyl)-7-(4-fluoropiperidin-1-yl)imidazo[1,2-a]pyrimidine]
- % displacement of [3H]T808 (10 nM) at 1 uM: 65%

Compound: FC1CCN(c2ccn3cc(-c4ccc5c(c4)OCO5)nc3n2)CC1 [Example 7, 2-(1,3-Benzodioxol-5-yl)-7-(4-fluoropiperidin-1-yl)imidazo[1,2-a]pyrimidine]
- % displacement of [3H]T808 (10 nM) at 10 nM: 21%
- % displacement of [3H]T808 (10 nM) at 1 uM: 75%

Compound: FC1CCN(c2ccn3cc(-c4ccc5c(c4)OCCO5)nc3n2)CC1 [Example 8, 2-(2,3-Dihydro-1,4-benzodioxin-6-yl)-7-(4-fluoropiperidin-1-yl)imidazo[1,2-a]pyrimidine]
- % displacement of [3H]T808 (10 nM) at 1 uM: 72%

Compound: FC1CCN(c2ccn3cc(-c4ccc(N5CCOCC5)cc4)nc3n2)CC1 [Example 9, 4-[4-[7-(4-Fluoropiperidin-1-yl)imidazo[1,2-a]pyrimidin-2-yl]phenyl]morpholine]
- % displacement of [3H]T808 (10 nM) at 1 uM: 75%

Compound: Cc1cccc(-c2cn3ccc(N4CCC(F)CC4)nc3n2)c1 [Example 10, 7-(4-Fluoropiperidin-1-yl)-2-(3-methylphenyl)imidazo[1,2-a]pyrimidine]
- % displacement of [3H]T808 (10 nM) at 1 uM: 79%

Compound: Cc1ccc(-c2cn3ccc(N4CCC(F)CC4)nc3n2)cc1 [Example 11, 7-(4-Fluoropiperidin-1-yl)-2-(4-methylphenyl)imidazo[1,2-a]pyrimidine]
- % displacement of [3H]T808 (10 nM) at 10 nM: 4%
- % displacement of [3H]T808 (10 nM) at 1 uM: 81%

Compound: Fc1ccccc1-c1cn2ccc(N3CCC(F)CC3)nc2n1 [Example 12, 2-(2-Fluorophenyl)-7-(4-fluoropiperidin-1-yl)imidazo[1,2-a]pyrimidine]
- % displacement of [3H]T808 (10 nM) at 1 uM: 50%

Compound: Oc1cccc(-c2cn3ccc(N4CCC(F)CC4)nc3n2)c1 [Example 13, 3-[7-(4-Fluoropiperidin-1-yl)imidazo[1,2-a]pyrimidin-2-yl]phenol]
- % displacement of [3H]T808 (10 nM) at 1 uM: 67%

Compound: FC1CCN(c2ccn3cc(-c4ccc(N5CCCC5)cc4)nc3n2)CC1 [Example 14, 7-(4-Fluoropiperidin-1-yl)-2-(4-pyrrolidin-1-ylphenyl)imidazo[1,2-a]pyrimidine]
- % displacement of [3H]T808 (10 nM) at 10 nM: 18%
- % displacement of [3H]T808 (10 nM) at 1 uM: 75%

Compound: FC1CCN(c2ccn3cc(-c4cccc(OC(F)(F)F)c4)nc3n2)CC1 [Example 15, 7-(4-Fluoropiperidin-1-yl)-2-[3-(trifluoromethoxy)phenyl]imidazo[1,2-a]pyrimidine]
- % displacement of [3H]T808 (10 nM) at 10 nM: 14%

Compound: FCOc1cccc(-c2cn3ccc(N4CCCC4)nc3n2)c1 [Example 16, 2-[3-(Fluoromethoxy)phenyl]-7-pyrrolidin-1-ylimidazo[1,2-a]pyrimidine]
- % displacement of [3H]T808 (10 nM) at 10 nM: 27%
- % displacement of [3H]T808 (10 nM) at 1 uM: 88%
